Where a name gives a salt, the structure may show the parent alone. Read-outs that look alike come from different tables or passages of the source.
Assays:
[1] = biological target: pneumolysin (Streptococcus pneumoniae serotype 2, UniProt Q04IN8); assay: Inhibition of the haemolytic activity of pneumolysin (sheep erythrocytes); type: cell-based
Method: The basis of this assay is that when pneumolysin is added to red blood cells, it induces their lysis and leads to the release of haemoglobin. In the presence of an inhibitory compound, pneumolysin-induced lysis is abolished, the red blood cells pellet at the bottom of the microtitre plate well and the supernatant is clear. However, if the compound is not inhibitory, the red blood cells are lysed and haemoglobin is released into the supernatant.
Test compound solutions (typically at 5 mM in DMSO) were diluted 1:1 in 100% DMSO. The compounds were then two-fold serially diluted in 100% DMSO across 11 wells of 96-well round-bottomed microtitre plate. PBS was then added to all the wells to achieve a 1:10 dilution of the compound in PBS. Pneumolysin was then added at a concentration equal to its LD100. Plates were then incubated at 37° C. for 30-40 min. After the incubation period, an equal volume of 4% (v/v) sheep erythrocyte suspension was added to each well and the plates incubated again at 37° C., for at least 30 min. Controls with only erythrocytes in PBS (control for no lysis) or erythrocytes plus pneumolysin (control for lysis) were prepared following the same procedure. Following the incubation with the erythrocytes, the Absorbance at 595 nm of each well was measured and the data used to determine the IC50 for each test compound. The IC50 values were determined using non-linear regression curve fitting. For that, the Log of the concentrations of the test compound was plotted against the percentage inhibition, estimated from the A595 values, followed by fitting a Hill Slope to the data.

[2] = Solubility testing in PBS or 0.9% saline; type: physicochemical; settings: for solubility: aqueous buffer, thermodynamic from solid, PBS
Method: Solubility studies were performed by charging a vial with 5-10 mg of compound followed by the 40 addition of PBS solution or 0.9% saline to achieve a concentration of 100 mg/ml. If solubility was not observed the solution was diluted to concentrations of 50 mg/ml, 25 mg/ml and 4 mg/ml consecutively until complete solubility was observed.

[3] = Chemical stability assessment in PBS at 37.5° C. (HPLC); type: physicochemical; settings: buffer, pH 6.2, read-out: Chemical stability at pH 6.2-7.2 (t1/2) (converted)
Method: (§1) Stability studies were carried out by dissolving 1-2 mg of compound in DMSO (1 mL) followed by addition of 0.4 mL of the resulting solution to stirred PBS solution (9.6 mL) at 37.5° C. A sample (ca. 0.5 mL) was immediately taken for HPLC analysis. Further samples were then taken for analysis at various timepoints thereafter. Half-lives were determined from the decrease in concentration of compound with respect to time.
as §1, with “performed” for “carried out”, “ml)” for “mL)”, “ml” for “mL”, “PBS” for “PBS solution”, “(˜0.5 ml)” for “(ca. 0.5 mL)”, “time-points” for “timepoints”

[4] = Conversion of prodrug to parent active compound in mouse plasma (LC-MS/MS); type: in vitro ADME; settings: 37° C., 10 μM start; for [ ] (μM) Prodrug remaining, t0 min.: 0 min; for [ ] (μM) Prodrug remaining, t15 min.: 15 min; for [ ] (μM) Prodrug remaining, t30 min.: 30 min; for [ ] (μM) Prodrug remaining, t60 min.: 60 min; for [ ] (μM) Prodrug remaining, t120 min.: 120 min
Method: (§2) The samples were then analysed by LC-MS/MS to obtain the amount of parent active compound appearing and prodrug derivative remaining over time.
(§3) Prodrug derivatives were assessed in the mouse, rat or human plasma stability assay at a concentration of 10 μM. Test compounds were diluted in DMSO to a final stock concentration of 10 mM. For the purpose of the assay, the stocks prepared were further diluted in DMSO to a concentration of 400 μM and 5 μL were added to 195 μL of mouse, rat or human plasma (pH 7.4) and then incubated at 37° C. The final concentration of DMSO in the plate was 2.5% (v/v). Reactions were terminated at 0, 15, 30, 60 and 120 min after incubation by adding 400 μl of acetonitrile containing 0.55 μM metoprolol and 1% (v/v) formic acid. The plate was then centrifuged at 3000 rpm, for 45 min, at 4° C. 80 μL of supernatant were transferred into a conical bottom 96 well glass coated plate. 40 μL of water were added prior to analysis for prodrug derivative and active species by LC-MS/MS. This assay was performed by a contract research organisation, Cyprotex Discovery Limited, UK, at the request of the inventors at Leicester.
(§4) (1) The parent active compound was quantified using a 6 point calibration curve prepared in deactivated mouse, rat or human plasma. (2) The percentage of prodrug compound remaining at each time point relative to 0 min sample was calculated from LC-MS/MS peak area ratios (compound peak area/internal standard peak area). This percentage was then used to determine the concentration of the prodrug compound at each time point in reference to the starting concentration (10 μM) at time 0 min.

[5] = Conversion of prodrug to parent active compound in rat plasma (LC-MS/MS); type: in vitro ADME; settings: 37° C., 10 μM start; for [ ] (μM) Prodrug remaining, t0 min.: 0 min; for [ ] (μM) Prodrug remaining, t15 min.: 15 min; for [ ] (μM) Prodrug remaining, t30 min.: 30 min; for [ ] (μM) Prodrug remaining, t60 min.: 60 min; for [ ] (μM) Prodrug remaining, t120 min.: 120 min
Method: as §2, §3, §4

[6] = Conversion of prodrug to parent active compound in human plasma (LC-MS/MS); type: in vitro ADME; settings: 37° C., 10 μM start; for [ ] (μM) Prodrug remaining, t0 min.: 0 min; for [ ] (μM) Prodrug remaining, t15 min.: 15 min; for [ ] (μM) Prodrug remaining, t30 min.: 30 min; for [ ] (μM) Prodrug remaining, t60 min.: 60 min
Method: as §2, §3, §4

Chain of pneumolysin (Q04IN8 whole entry): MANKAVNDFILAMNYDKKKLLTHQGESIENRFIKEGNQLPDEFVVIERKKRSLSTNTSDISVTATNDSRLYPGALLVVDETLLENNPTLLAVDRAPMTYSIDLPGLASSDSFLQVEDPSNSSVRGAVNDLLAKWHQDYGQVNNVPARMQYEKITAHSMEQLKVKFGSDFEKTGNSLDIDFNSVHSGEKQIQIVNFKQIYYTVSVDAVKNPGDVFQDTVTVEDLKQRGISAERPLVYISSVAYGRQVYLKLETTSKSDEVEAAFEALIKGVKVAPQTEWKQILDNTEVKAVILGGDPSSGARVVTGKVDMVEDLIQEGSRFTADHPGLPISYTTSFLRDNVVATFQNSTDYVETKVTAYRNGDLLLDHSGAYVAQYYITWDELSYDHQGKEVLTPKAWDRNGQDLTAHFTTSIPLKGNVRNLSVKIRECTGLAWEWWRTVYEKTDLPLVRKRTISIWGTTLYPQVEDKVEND

Row | Structure (SMILES) | half-life [3] | IC50 [1] | [ ] (μM) Prodrug remaining, t0 min. [4] | [ ] (μM) Prodrug remaining, t15 min. [4] | [ ] (μM) Prodrug remaining, t30 min. [4] | [ ] (μM) Prodrug remaining, t60 min. [4] | [ ] (μM) Prodrug remaining, t120 min. [4] | other results
1 | CCOC(=O)c1c(O)c(O)c(C(=O)N(C)C)n1-c1ccc(OC)cc1 [UL1-012, Ethyl 5-(dimethylcarbamoyl)-3,4-dihydroxy-1-(4-methoxyphenyl)-1H-pyrrole-2-carboxylate] | 1.02 h | – | – | – | – | – | – | IC50 ([1]; Table 1, pneumolysin at LD100, sheep erythrocytes, 37° C., read-out: IC50): 200 nM; IC50 ([1]; Table 2, pneumolysin at LD100, sheep erythrocytes, 37° C., read-out: IC50): 200 nM; Solubility in 0.9% (w/v) saline, pH 6.5 or PBS pH 7.2 ([2]; result in words): Not soluble
2 | COc1ccc(-n2c(C(=O)N(C)C)c(O)c(O)c2C(=O)N2CCN(C)CC2)cc1 [UL1-027, 3,4-Dihydroxy-1-(4-methoxyphenyl)-N,N-dimethyl-5-(4-methylpiperazine-1-carbonyl)-1H-pyrrole-2-carboxamide] | – | 200 nM | – | – | – | – | – | –
3 | COc1ccc(-n2c(C(=O)N(C)C)c(OC(=O)C(C)C)c(OC(=O)C(C)C)c2C(=O)N(C)C)cc1 [UL1-114, 2,5-Bis(dimethylcarbamoyl)-1-(4-methoxyphenyl)-1H-pyrrole-3,4-diyl bis(2-methylpropanoate)] | – | 19500 nM | – | – | – | – | – | –
4 | COc1ccc(-n2c(C(=O)N(C)C)c(OC(=O)C(C)C)c(OC(=O)C(C)C)c2C(=O)N2CCN(C)CC2)cc1.Cl [UL6-002, 2-(Dimethylcarbamoyl)-1-(4-methoxyphenyl)-5-(4-methylpiperazine-1-carbonyl)-1H-pyrrole-3,4-diyl bis(2-methylpropanoate) hydrochloride] | – | 2000 nM | 10.00 µM | 0.00 µM | 0.00 µM | 0.02 µM | 0.00 µM | –
5 | COc1ccc(-n2c(C(=O)N(C)C)c(OC(=O)C(C)(C)C)c(OC(=O)C(C)(C)C)c2C(=O)N2CCN(C)CC2)cc1 [UL6-004, 2-(Dimethylcarbamoyl)-1-(4-methoxyphenyl)-5-(4-methylpiperazine-1-carbonyl)-1H-pyrrole-3,4-diyl bis(2,2-dimethylpropanoate) hydrochloride] | – | 1600 nM | 10.00 µM | 10.00 µM | 9.88 µM | 9.80 µM | 9.63 µM | –
6 | COc1ccc(-n2c(C(=O)N(C)C)c(OC(=O)c3cccc(COP(=O)(O)O)c3)c(OC(=O)c3cccc(COP(=O)(O)O)c3)c2C(=O)N(C)C)cc1.[Na+].[Na+] [UL6-006, Sodium ((((2,5-bis(dimethylcarbamoyl)-1-(4-methoxyphenyl)-1H-pyrrole-3,4-diyl)bis(oxy))bis(carbonyl))bis(3,1-phenylene))bis(methylene) bis(hydrogenphosphate)] | 29.5 h | 300 nM | 10.00 µM | 2.05 µM | 0.79 µM | 0.10 µM | 0.04 µM | solubility ([2]; pH 5-6): ≥ 50 mg/mL; [ ] (μM) Prodrug remaining, t0 min. [5]: 10.00 µM; [ ] (μM) Prodrug remaining, t15 min. [5]: 8.90 µM; [ ] (μM) Prodrug remaining, t30 min. [5]: 1.17 µM; [ ] (μM) Prodrug remaining, t60 min. [5]: 0.21 µM; [ ] (μM) Prodrug remaining, t120 min. [5]: 0.07 µM; [ ] (μM) Prodrug remaining, t0 min. [6]: 10.00 µM; [ ] (μM) Prodrug remaining, t15 min. [6]: 2.15 µM; [ ] (μM) Prodrug remaining, t30 min. [6]: 0.05 µM; [ ] (μM) Prodrug remaining, t60 min. [6]: 0.01 µM
7 | CCOC(=O)c1c(OC(=O)c2ccc(COP(=O)([O-])O)cc2)c(OC(=O)c2ccc(COP(=O)([O-])O)cc2)c(C(=O)N(C)C)n1-c1ccc(OC)cc1.[Na+].[Na+] [UL6-008, Sodium ((((2-(dimethylcarbamoyl)-5-(ethoxycarbonyl)-1-(4-methoxyphenyl)-1H-pyrrole-3,4-diyl)bis(oxy))bis(carbonyl))bis(4,1-phenylene))bis(methylene) bis(hydrogenphosphate)] | 144 h | 1900 nM | 10.00 µM | 4.53 µM | 1.70 µM | 0.47 µM | 0.09 µM | solubility ([2]; pH 6): ≥ 100 mg/mL; [ ] (μM) Prodrug remaining, t0 min. [5]: 10.00 µM; [ ] (μM) Prodrug remaining, t15 min. [5]: 2.90 µM; [ ] (μM) Prodrug remaining, t30 min. [5]: 1.00 µM; [ ] (μM) Prodrug remaining, t60 min. [5]: 0.21 µM; [ ] (μM) Prodrug remaining, t120 min. [5]: 0.07 µM; [ ] (μM) Prodrug remaining, t0 min. [6]: 10.00 µM; [ ] (μM) Prodrug remaining, t15 min. [6]: 4.89 µM; [ ] (μM) Prodrug remaining, t30 min. [6]: 5.10 µM; [ ] (μM) Prodrug remaining, t60 min. [6]: 6.06 µM; [ ] (μM) Prodrug remaining, t120 min. ([6]; 120 min): 4.52 µM
